For the experiment, the system named is CD2F1 mice, L1210 leukemia ip, survival T/C. The experiment can be described thus: NCI In Vivo Anticancer Drug Screen. Data for tumor model L1210 Leukemia (intraperitoneal) in CD2F1 (CDF1) mice. The note with it: higher = longer survival. Put shortly: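 Vehicle-treated tumor-bearing mice served as controls (C) for compound-treated mice (T). Reported figure is T divided by C.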

[1] abbreviates: endpoint: mean survival time, dose: 100.0 mg/kg/injection, schedule: Q01DX009 (ip), vehicle: saline with Tween-80.
Where [2] appears, read: endpoint: mean survival time, dose: 200.0 mg/kg/injection, schedule: Q01DX009 (ip), vehicle: saline with Tween-80.
Where [3] appears, read: endpoint: mean survival time, dose: 400.0 mg/kg/injection, schedule: Q01DX009 (ip), vehicle: saline with Tween-80.
Setting [4] is: endpoint: mean survival time, dose: 25.0 mg/kg/injection, schedule: Q01DX009 (ip), vehicle: saline.
[5] abbreviates: endpoint: mean survival time, dose: 100.0 mg/kg/injection, schedule: Q04DX003 (ip), vehicle: saline with Tween-80.
The mark [6] stands for this setting: endpoint: mean survival time, dose: 200.0 mg/kg/injection, schedule: Q04DX003 (ip), vehicle: saline with Tween-80.
Where [7] appears, read: endpoint: mean survival time, dose: 100.0 mg/kg/injection, schedule: Q04DX002 (ip), vehicle: saline with Tween-80.

The record followed here is PubChem BioAssay AID256 (DTP/NCI, 2004).

Where “and” joins values, the source holds several entries; their conditions need not be identical. Identical values can stand only once. Toxic doses and inconclusive results are not listed.

Consider `O=C1/C(=C/c2ccccc2[N+](=O)[O-])Cc2ccccc21`, for which the T/C (endpoint: mean survival time, dose: 100.0 mg/kg/injection, schedule: Q04DX003 (ip), vehicle: Klucel (hydroxypropylcellulose) (HPC)) is 100 % of control; the T/C (endpoint: mean survival time, dose: 200.0 mg/kg/injection, schedule: Q04DX003 (ip), vehicle: Klucel (hydroxypropylcellulose) (HPC)) is 100 % of control; the T/C (endpoint: mean survival time, dose: 400.0 mg/kg/injection, schedule: Q04DX003 (ip), vehicle: Klucel (hydroxypropylcellulose) (HPC)) is 103 % of control.
As for `c1ccc(C2=NN(c3ccccc3)CN(c3ccccc3)N2)cc1`, the T/C is, setting by setting: under setting [1], 106 % of control; under setting [2], 97 % of control; under setting [3], 96 % of control.
`O=C1CN(CN2CCOCC2)C(=O)CN1CN1CCOCC1`: the T/C runs as follows: (endpoint: mean survival time, dose: 12.5 mg/kg/injection, schedule: Q01DX009 (ip), vehicle: saline) 98 % of control and 101 % of control; under setting [4], 96 % of control and 98 % of control; (endpoint: mean survival time, dose: 50.0 mg/kg/injection, schedule: Q01DX009 (ip), vehicle: saline) 90 % of control and 102 % of control; (endpoint: mean survival time, dose: 100.0 mg/kg/injection, schedule: Q01DX009 (ip), vehicle: saline) 102 % of control and 108 % of control; (endpoint: mean survival time, dose: 200.0 mg/kg/injection, schedule: Q01DX009 (ip), vehicle: saline) 106 % of control and 111 % of control; (endpoint: mean survival time, dose: 400.0 mg/kg/injection, schedule: Q01DX009 (ip), vehicle: saline) 93 % of control and 107 % of control.
As to `O=[N+]([O-])c1[nH]c(Br)nc1Br`, the T/C is 95 % of control under setting [5] and 100 % of control under setting [6].
Turning to `CC1C(c2ccccc2)OC(N2CCOCC2)C(C)(C)CN1C` (stereo unspecified), the T/C runs as follows: (endpoint: median survival time, dose: 50.0 mg/kg/injection, schedule: Q01DX009 (ip), vehicle: saline with Tween-80) 100 % of control; (endpoint: median survival time, dose: 100.0 mg/kg/injection, schedule: Q01DX009 (ip), vehicle: saline with Tween-80) 102 % of control; (endpoint: median survival time, dose: 200.0 mg/kg/injection, schedule: Q01DX009 (ip), vehicle: saline with Tween-80) 102 % of control; (endpoint: median survival time, dose: 400.0 mg/kg/injection, schedule: Q01DX009 (ip), vehicle: saline with Tween-80) 97 % of control.
For the compound `CN(C(=O)N(CCCl)N=O)C1CCCCC1`, the T/C was 96 % of control (endpoint: mean survival time, dose: 16.0 mg/kg/injection, schedule: Q01DX001 (ip), vehicle: saline with Tween-80); 98 % of control (endpoint: mean survival time, dose: 24.0 mg/kg/injection, schedule: Q01DX001 (ip), vehicle: saline with Tween-80); 108 % of control (endpoint: mean survival time, dose: 36.0 mg/kg/injection, schedule: Q01DX001 (ip), vehicle: saline with Tween-80); 110 % of control (endpoint: mean survival time, dose: 54.0 mg/kg/injection, schedule: Q01DX001 (ip), vehicle: saline with Tween-80); 123 % of control (endpoint: mean survival time, dose: 80.0 mg/kg/injection, schedule: Q01DX001 (ip), vehicle: saline with Tween-80); 236 % of control (endpoint: mean survival time, dose: 180.0 mg/kg/injection, schedule: Q01DX001 (ip), vehicle: saline with Tween-80). Further, the T/C is 396 % of control (endpoint: mean survival time, dose: 268.0 mg/kg/injection, schedule: Q01DX001 (ip), vehicle: saline with Tween-80) and 353 % of control (endpoint: mean survival time, dose: 400.0 mg/kg/injection, schedule: Q01DX001 (ip), vehicle: saline with Tween-80).
As to `C=C(Br)CNS(=O)(=O)c1ccc(OC)cc1`, the T/C is 93 % of control under setting [1], 97 % of control under setting [2] and 96 % of control under setting [3].
Take `CC(C)OC(=O)Nc1ncn[nH]1`: the T/C is, setting by setting: under setting [7], 104 % of control; (endpoint: mean survival time, dose: 200.0 mg/kg/injection, schedule: Q04DX002 (ip), vehicle: saline with Tween-80) 108 % of control; (endpoint: mean survival time, dose: 400.0 mg/kg/injection, schedule: Q04DX002 (ip), vehicle: saline with Tween-80) 93 % of control.
`CC(O)(c1ccccc1)c1ccccc1`: the T/C was 104 % of control under setting [1], 102 % of control under setting [2] and 96 % of control under setting [3].
Turning to `CCOC(=O)Nc1cc(N)c2nc(CN(C)c3ccccc3)cnc2n1`, the T/C reads like this: (endpoint: mean survival time, dose: 100.0 mg/kg/injection, schedule: Q01DX001 (ip), vehicle: other) 91 % of control; (endpoint: mean survival time, dose: 200.0 mg/kg/injection, schedule: Q01DX001 (ip), vehicle: other) 94 % of control; (endpoint: mean survival time, dose: 400.0 mg/kg/injection, schedule: Q01DX001 (ip), vehicle: other) 91 % of control.
In the case of `C#CC[N+](C)(C)CCNC(=O)CCCCCCCCCCCCCCC`, the T/C (endpoint: mean survival time, dose: 75.0 mg/kg/injection, schedule: Q01DX001 (ip), vehicle: saline) is 102 % of control.
As for `O=C(COc1ccccc1)Nc1ccc(Br)cc1`, the T/C is, setting by setting: (endpoint: mean survival time, dose: 100.0 mg/kg/injection, schedule: Q01DX001 (ip), vehicle: Klucel (hydroxypropylcellulose) (HPC)) 97 % of control; (endpoint: mean survival time, dose: 200.0 mg/kg/injection, schedule: Q01DX001 (ip), vehicle: Klucel (hydroxypropylcellulose) (HPC)) 105 % of control; (endpoint: mean survival time, dose: 400.0 mg/kg/injection, schedule: Q01DX001 (ip), vehicle: Klucel (hydroxypropylcellulose) (HPC)) 105 % of control.
As to `CC(=O)C1=CCC2C3CC=C4CC(OC#N)CCC4(C)C3CCC12C` (stereo unspecified), the T/C is, setting by setting: under setting [1], 97 % of control; under setting [2], 92 % of control; under setting [3], 89 % of control.
In the case of `COc1ccc(C(=O)/C=N/O)cc1`, the T/C is 100 % of control (endpoint: mean survival time, dose: 25.0 mg/kg/injection, schedule: Q04DX003 (ip), vehicle: saline with Tween-80); 100 % of control (endpoint: mean survival time, dose: 50.0 mg/kg/injection, schedule: Q04DX003 (ip), vehicle: saline with Tween-80); 95 % of control and 98 % of control under setting [5].
For `O=C(NC(C(=O)NC(C(=O)O)C1CC(Cl)=NO1)C1CC(Cl)=NO1)OCC1c2ccccc2-c2ccccc21` (stereo unspecified), the T/C runs as follows: (endpoint: mean survival time, dose: 1.6 mg/kg/injection, schedule: Q01DX009 (ip), vehicle: saline) 122 % of control; (endpoint: mean survival time, dose: 3.1 mg/kg/injection, schedule: Q01DX009 (ip), vehicle: saline) 116 % of control; under setting [4], 87 % of control.
For `CC(=O)C(C(c1ccccc1)C1CCCc2ccccc21)N1CCOCC1` (stereo unspecified), the T/C under setting [1] was 104 % of control; the T/C under setting [5] is 103 % of control; the T/C under setting [2] is 98 % of control; the T/C under setting [6] is 100 % of control; the T/C under setting [3] is 95 % of control; the T/C (endpoint: mean survival time, dose: 400.0 mg/kg/injection, schedule: Q04DX003 (ip), vehicle: saline with Tween-80) was 101 % of control.
For `N#CC1(O)CCCCC1`, the T/C (endpoint: mean survival time, dose: 2.5 mg/kg/injection, schedule: Q01DX009 (ip), vehicle: saline with Tween-80) is 102 % of control; the T/C (endpoint: mean survival time, dose: 5.0 mg/kg/injection, schedule: Q01DX009 (ip), vehicle: saline with Tween-80) was 104 % of control; the T/C (endpoint: mean survival time, dose: 5.0 mg/kg/injection, schedule: Q04DX003 (ip), vehicle: saline with Tween-80) was 102 % of control; the T/C (endpoint: mean survival time, dose: 10.0 mg/kg/injection, schedule: Q01DX009 (ip), vehicle: saline with Tween-80) was 94 % of control; the T/C (endpoint: mean survival time, dose: 10.0 mg/kg/injection, schedule: Q04DX003 (ip), vehicle: saline with Tween-80) was 102 % of control.
With `Cl/C(=N\Nc1ccccc1)c1ccccc1`, the T/C is, setting by setting: (endpoint: mean survival time, dose: 12.5 mg/kg/injection, schedule: Q01DX009 (ip), vehicle: Klucel (hydroxypropylcellulose) (HPC)) 102 % of control; (endpoint: mean survival time, dose: 25.0 mg/kg/injection, schedule: Q01DX009 (ip), vehicle: Klucel (hydroxypropylcellulose) (HPC)) 98 % of control; (endpoint: mean survival time, dose: 50.0 mg/kg/injection, schedule: Q01DX009 (ip), vehicle: Klucel (hydroxypropylcellulose) (HPC)) 88 % of control.
As to `CCNc1nc(NCC)nc(SC)n1`, the T/C is 100 % of control (endpoint: mean survival time, dose: 50.0 mg/kg/injection, schedule: Q01DX009 (ip), vehicle: saline with Tween-80); 89 % of control under setting [1]; 100 % of control under setting [5]; 97 % of control under setting [6].
In the case of `CC(Oc1ccc(Br)cc1Br)C(=O)O` (stereo unspecified), the T/C reads like this: under setting [1], 97 % of control; under setting [2], 94 % of control; under setting [3], 94 % of control.
`CCC(Cc1ccccc1)C1=NC(C)(C)CC(C)O1` (stereo unspecified): the T/C was 97 % of control (endpoint: mean survival time, dose: 100.0 mg/kg/injection, schedule: Q01DX001 (ip), vehicle: saline with Tween-80) and 89 % of control (endpoint: mean survival time, dose: 200.0 mg/kg/injection, schedule: Q01DX001 (ip), vehicle: saline with Tween-80).
Take `CC(C)(C[P+](C)(c1ccccc1)c1ccccc1)c1ccccc1`: the T/C is, setting by setting: (endpoint: mean survival time, dose: 50.0 mg/kg/injection, schedule: Q04DX002 (ip), vehicle: saline with Tween-80) 98 % of control; under setting [7], 102 % of control.
